Measured values published in EP2522329A1, “Use of resveratrol and arbutin” (DSM IP Assets B.V., priority 2011, dated 2012).
Where two headings read alike, the source gives them in different places.

System: POMC
Assay: Gene modulation in normal human epidermal melanocytes (NHEM), RT-qPCR PCR array of mRNA expression
Format: cell-based
Conditions: Melanocyte, 72 h
Method: Normal human epidermal melanocytes were cultivated for 24 hours. […] Cells were cultivated for additional 72 hours. All experimental conditions were performed in triplicate.
At the end of the cultivation, the cells were harvested and washed with phosphate buffered saline (PBS) solution and immediately frozen at -80 °C. The expression of selected markers was analyzed using RT-qPCR method on mRNA extracted from cells layer for each treatment condition. The differential expression analysis was performed by PCR arrays of the screening format "mQPA H-Melanocyte-64", which focuses on 64 genes selected for their importance in pigmentation and melanocyte biology.
Total RNA was extracted from each sample using TRI-Reagent®. The amount and quality of the RNA was evaluated using a lab-on-a-chip Bioanalyzer (Agilent technologies). Potential contaminants traces of DNA were removed […] The incorporation of fluorescence in amplified DNA was measured continuously during the PCR cycles. […] The value selected for RE calculations is the "output point" (Ct) of the fluorescence curve. For a given marker, the highest is the cycle number; the lowest, is the mRNA quantity. The RE value is expressed in arbitrary units (AU) according to the equation: (((1)/(2)))^NC x 10^6 Where NC is the number of cycles. [formula]

SMILES: Oc1ccc(C=Cc2cc(O)cc(O)c2)cc1 [Resveratrol, 3,4',5 trihydroxystilbene]
- activation at 5 µg/mL (read-out: POMC expression ratio compared to control): 5%
- activation at 5 µg/mL (read-out: modulation of expression of the gene POMC when compared to untreated cells): 5%
